Patent US9701676B2, “Pro-neurogenic compounds” (Board of Regents of The University of Texas System, priority 2012, dated 2017)

System: proliferating neural precursor cells in the hippocampus (subgranular layer of the dentate gyrus)
Assay: standard in vivo hippocampal neurogenesis assay (BrdU labelling, week-long intracranial mini-pump infusion)
Set-up: species or system mouse (C57/B6)
Conditions: 10 μM concentration, seven days of infusion at 0.5 μL/hour, daily IP BrdU; four 12 week old adult male C57/B6 mice; vehicle 14.5
Protocol: Compounds were administered at a concentration of 10 μM for each molecule. After seven days of infusion at a constant rate of 0.5 μL/hour, a total of 84 μL of volume will have left the pump (0.00084 μMoles) and entered the cerebrospinal fluid. The average volume of a brain from a 12 week old male, C57/B6 mouse in the study is 500 mm^3. […] Under these conditions, at the end of one week of infusion each compound would be present at 1.7 μMolar concentration. Since the actual amount of chemical compound in the brain is likely to be only a fraction of this predicted level, it is reasonable to estimate that compounds were administered at mid to low-nanomolar concentrations.
During compound infusion, animals were intraperitoneally (IP) injected daily with the thymidine analog, bromodeoxyuridine (BrdU), as a means of scoring the birth and survival of proliferating neural precursor cells in the hippocampus. Because both social interaction and voluntary exercise are known to stimulate hippocampal neurogenesis, mice were housed individually without access to running wheels throughout the screening period. Following the week-long period of compound administration, animals were perfused and sacrificed. Dissected brain tissue was fixed, embedded, sectioned, stained with antibodies to BrdU, and evaluated by light microcopy as a means of quantifying neurogenesis and survival of newborn neural precursor cells localized to the subgranular layer of the dentate gyms on the brain hemisphere contralateral to the side of mini-pump cannulation. Every fifth section throughout the entire rostral-caudal extent of the hippocampus was analyzed, and the total number of BrdU+ cells was normalized against the measured volume of the dentate gyms.
Intracranial infusions of either fibroblast growth factor 2 (FGF-2) or artificial cerebral spinal fluid (aCSF) vehicle via the same, week-long protocol were employed as positive and negative controls.
Compounds were evaluated for pro-neurogenic efficacy/neuroprotection in a standard in vivo hippocampal neurogenesis assay at 10 μM concentration in four 12 week old adult male C57/B16 mice.

Structure (SMILES)	(×10^−06) BrdU+ cells/mm^3 dentate gyrus
NC(Cc1c[nH]c2ccc(Br)cc12)C(=O)O (racemic) [P7C3-S207, 5-bromo-DL-tryptophan, reference compound]	32.4 (×10^−06) BrdU+ cells/mm^3
COc1cccc(NCC(O)CN2c3ccc(Br)cc3CCc3cc(Br)ccc32)c1 (centres unmarked) [P7C3-S76]	28.3 (×10^−06) BrdU+ cells/mm^3
OC(CN1c2ccccc2CCc2ccccc21)Cn1ccc2ccccc21 (centres unmarked) [P7C3-S132, 1-(10,11-dihydro-5H-dibenzo[b,f]azepin-5-yl)-3-(1H-indol-1-yl)propan-2-ol]	22.8 (×10^−06) BrdU+ cells/mm^3
OC(CN1c2ccccc2CCc2ccccc21)Cn1c2ccccc2c2ccccc21 (centres unmarked) [P7C3-S133, 1-(9H-carbazol-9-yl)-3-(10,11-dihydro-5H-dibenzo[b,f]azepin-5-yl)propan-2-ol]	20.2 (×10^−06) BrdU+ cells/mm^3
OC(CSc1ccccc1)CN1c2ccccc2CCc2ccccc21 (centres unmarked) [P7C3-S134, 1-(10,11-dihydro-5H-dibenzo[b,f]azepin-5-yl)-3-(phenylthio)propan-2-ol]	19.4 (×10^−06) BrdU+ cells/mm^3
OC(COc1ccccc1)CN1c2ccccc2CCc2ccccc21 (centres unmarked) [P7C3-S135, 1-(10,11-dihydro-5H-dibenzo[b,f]azepin-5-yl)-3-phenoxypropan-2-ol]	14.2 (×10^−06) BrdU+ cells/mm^3
CN(C)CC(O)CN1c2ccccc2CCc2ccccc21 (centres unmarked) [P7C3-S139, 1-(10,11-dihydro-5H-dibenzo[b,f]azepin-5-yl)-3-(dimethylamino)propan-2-ol]	24.9 (×10^−06) BrdU+ cells/mm^3
NCC(O)CN1c2ccccc2CCc2ccccc21 (centres unmarked) [P7C3-S140, 1-amino-3-(10,11-dihydro-5H-dibenzo[b,f]azepin-5-yl)propan-2-ol]	23.4 (×10^−06) BrdU+ cells/mm^3
CNCC(O)CN1c2ccccc2CCc2ccccc21 (centres unmarked) [P7C3-S143, 1-(10,11-dihydro-5H-dibenzo[b,f]azepin-5-yl)-3-(methylamino)propan-2-ol]	14.5 (×10^−06) BrdU+ cells/mm^3
CC(C)NCC(O)CN1c2ccccc2CCc2ccccc21 (centres unmarked) [P7C3-S144, 1-(10,11-dihydro-5H-dibenzo[b,f]azepin-5-yl)-3-(isopropylamino)propan-2-ol]	18.1 (×10^−06) BrdU+ cells/mm^3
CC(C)(C)NCC(O)CN1c2ccccc2CCc2ccccc21 (centres unmarked) [P7C3-S145, 1-(tert-butylamino)-3-(10,11-dihydro-5H-dibenzo[b,f]azepin-5-yl)propan-2-ol]	25 (×10^−06) BrdU+ cells/mm^3
CN(C)CC(F)CN1c2ccccc2CCc2ccccc21 (centres unmarked) [P7C3-S148, 3-(10,11-dihydro-5H-dibenzo[b,f]azepin-5-yl)-2-fluoro-N,N-dimethylpropan-1-amine]	22.6 (×10^−06) BrdU+ cells/mm^3
CN(C)C(CF)CN1c2ccccc2CCc2ccccc21 (centres unmarked) [P7C3-S149, 1-(10,11-dihydro-5H-dibenzo[b,f]azepin-5-yl)-3-fluoro-N,N-dimethylpropan-2-amine]	23.2 (×10^−06) BrdU+ cells/mm^3
CNCC(F)CN1c2ccccc2CCc2ccccc21 (centres unmarked) [P7C3-S152, 3-(10,11-dihydro-5H-dibenzo[b,f]azepin-5-yl)-2-fluoro-N-methylpropan-1-amine]	26.8 (×10^−06) BrdU+ cells/mm^3
COc1cccc(NCC(O)CN2c3ccccc3CCc3ccccc32)c1 (centres unmarked) [P7C3-S158, 1-(10,11-dihydro-5H-dibenzo[b,f]azepin-5-yl)-3-((3-methoxyphenyl)amino)propan-2-ol]	25 (×10^−06) BrdU+ cells/mm^3
Brc1ccc2[nH]c3ccc(Br)cc3c2c1 [P7C3-S162, 3,6-dibromo-9H-carbazole]	25.2 (×10^−06) BrdU+ cells/mm^3
Cn1c2ccc(Br)cc2c2cc(Br)ccc21 [P7C3-S163, 3,6-dibromo-9-methyl-9H-carbazole]	24.2 (×10^−06) BrdU+ cells/mm^3
CC(C)(O)Cn1c2ccc(Br)cc2c2cc(Br)ccc21 [P7C3-S169, 1-(3,6-dibromo-9H-carbazol-9-yl)-2-methylpropan-2-ol]	18.4 (×10^−06) BrdU+ cells/mm^3
OC(CN1c2ccccc2CCc2ccccc21)CN1c2ccccc2CCc2ccccc21 [P7C3-S170, 1,3-bis(10,11-dihydro-5H-dibenzo[b,f]azepin-5-yl)propan-2-ol]	22.4 (×10^−06) BrdU+ cells/mm^3
OCCn1c2ccc(Br)cc2c2cc(Br)ccc21 [P7C3-S171, 2-(3,6-dibromo-9H-carbazol-9-yl)ethanol]	26.2 (×10^−06) BrdU+ cells/mm^3
OC(CNc1cccc2ccccc12)Cn1c(-c2ccccc2)cc2ccccc21 (centres unmarked) [P7C3-S185, 1-(naphthalen-1-ylamino)-3-(2-phenyl-1H-indol-1-yl)propan-2-ol]	25.1 (×10^−06) BrdU+ cells/mm^3

Structure (SMILES)	(×10^−06) BrdU+ cells/mm^3 dentate gyrus
[N-]=[N+]=NCC(F)Cn1c2ccc(Br)cc2c2cc(Br)ccc21 (centres unmarked) [P7C3-S189, 9-(3-azido-2-fluoropropyl)-3,6-dibromo-9H-carbazole]	13.7 (×10^−06) BrdU+ cells/mm^3
COc1ccc2[nH]cc(CCNC(C)=O)c2c1 [P7C3-S193, Melatonin, reference compound]	15.6 (×10^−06) BrdU+ cells/mm^3
CCOC(=O)C1=C[C@]2(CC)CCCN3CCc4c(n1c1ccccc41)[C@@H]32 [P7C3-S199, Vinpocetine, reference compound]	26.5 (×10^−06) BrdU+ cells/mm^3
CCC(C)N(C)C(=O)c1cc2ccccc2c(-c2ccccc2Cl)n1 (centres unmarked) [P7C3-S200, PK 11195, reference compound]	22.1 (×10^−06) BrdU+ cells/mm^3
CCCCCCN(CCCCCC)C(=O)Cc1c(-c2ccc(F)cc2)[nH]c2ccccc12 [P7C3-S201, N,N-Dihexyl-2-(4-fluorophenyl)indole-3-acetamide, reference compound]	24.8 (×10^−06) BrdU+ cells/mm^3
CN1C(=O)CN=C(c2ccc(Cl)cc2)c2cc(Cl)ccc21 [P7C3-S203, 4′-chlorodiazepam, reference compound]	21.5 (×10^−06) BrdU+ cells/mm^3
O=C(O)c1cc2c(cn1)[nH]c1ccc(Br)cc12 [P7C3-S206, 6-bromo-9H-pyrido[3,4-b]indole-3-carboxylic acid]	29.6 (×10^−06) BrdU+ cells/mm^3
COc1ccc2[nH]c3ccc(Br)cc3c2c1 [P7C3-S209, 3-bromo-6-methoxy-9H-carbazole]	30 (×10^−06) BrdU+ cells/mm^3
O=C(O)CN1c2ccccc2CCc2ccccc21 [P7C3-S210, 2-(10,11-dihydro-5H-dibenzo[b,f]azepin-5-yl)acetic acid]	21.4 (×10^−06) BrdU+ cells/mm^3
CC(C(=O)O)n1c2ccc(Br)cc2c2cc(Br)ccc21 (centres unmarked) [P7C3-S211, 2-(3,6-dibromo-9H-carbazol-9-yl)propanoic acid]	23 (×10^−06) BrdU+ cells/mm^3
c1ccc2c(c1)CCc1ccccc1N2 [P7C3-S212, iminodibenzyl, reference compound]	20.5 (×10^−06) BrdU+ cells/mm^3
N#Cc1ccc2[nH]c3ccc(Br)cc3c2c1 [P7C3-S216, 6-bromo-9H-carbazole-3-carbonitrile]	25.9 (×10^−06) BrdU+ cells/mm^3
N#Cc1[nH]c2ccc(Br)cc2c1N [P7C3-S222, 3-amino-5-bromo-1H-indole-2-carbonitrile]	30.1 (×10^−06) BrdU+ cells/mm^3
N#Cc1ccc2c(c1)c1cc(Br)ccc1n2CC(=O)O [P7C3-S224, 2-(3-bromo-6-cyano-9H-carbazol-9-yl)acetic acid]	20.2 (×10^−06) BrdU+ cells/mm^3
O=C(O)c1ccc2[nH]c3ccc(Br)cc3c2c1 [P7C3-S225, 6-bromo-9H-carbazole-3-carboxylic acid]	30.4 (×10^−06) BrdU+ cells/mm^3
O=C(O)Cn1c2ccc(Br)cc2c2cc(C(=O)O)ncc21 [P7C3-S227, 6-bromo-9-(carboxymethyl)-9H-pyrido[3,4-b]indole-3-carboxylic acid]	25.8 (×10^−06) BrdU+ cells/mm^3
Cc1ccc2[nH]c3ccc(Br)cc3c2c1 [P7C3-S228, 3-bromo-6-methyl-9H-carbazole]	40.3 (×10^−06) BrdU+ cells/mm^3
O=C(Cn1c2ccc(Br)cc2c2cc(Br)ccc21)NS(=O)(=O)c1ccccc1 [P7C3-S230, 2-(3,6-dibromo-9H-carbazol-9-yl)-N-(phenylsulfonyl)acetamide]	30.5 (×10^−06) BrdU+ cells/mm^3
O=C(Cn1c2ccc(Br)cc2c2cc(Br)ccc21)NO [P7C3-S231, 2-(3,6-dibromo-9H-carbazol-9-yl)-N-hydroxyacetamide]	26.1 (×10^−06) BrdU+ cells/mm^3
CS(=O)(=O)NC(=O)Cn1c2ccc(Br)cc2c2cc(Br)ccc21 [P7C3-S232, 2-(3,6-dibromo-9H-carbazol-9-yl)-N-(methylsulfonyl)acetamide]	16.8 (×10^−06) BrdU+ cells/mm^3
